Where a name gives a salt, the structure may show the parent alone.
Legend:
glaucoma = conditions: clinical trial; Eur. J. Ophthalmol. 1997, 7(1): 35-9; cited from earlier work
[1] = tested on: intraocular pressure of New Zealand White Rabbits; assay: Intraocular pressure lowering test (3), change ratio of intraocular pressure (Example 3); format: in vivo; conditions: 50 μl each, four hours after second administration
Experimental: Using a tonometer (“Alcon Applanation Pneumatonography; manufactured by Alcon), the intraocular pressure of each of New Zealand White Rabbits having body weights of 2 to 3 kg was measured (without anesthesia), followed by administration of 50 μl of a test compound in the form of eye drops. The intraocular pressure was then measured for 4 hours at intervals of one hour (single administration test).
After the measurement of the intraocular pressure as in Example 2, 50 μl of a solution of test compound 1 was instilled into the eyes, followed by administration of the same amount of the solution of test compound 2 after 5 minutes. Four hours after the second administration, the intraocular pressure was measured and the change ratio of the intraocular pressure was determined by the below-described equation: The change ratio of intraocular pressure (%)=[(intraocular pressure after administration of eye drops−intraocular pressure before administration of eye drops)/intraocular pressure before administration of eye drops]×100.
In this Example, the same test compounds as Example 1 were employed. The results are shown below in Tables 1 and 2.

[2] = tested on: ocular hypertension models of New Zealand White Rabbits; assay: Intraocular pressure lowering test (4), ocular hypertension model (Example 4); format: in vivo; conditions: relative to control group
Experimental: Using New Zealand White Rabbits having body weights of 2 to 3 kg, ocular hypertension models were prepared in accordance with the method of Kurihara, et al. (Jpn. J. Ocular Pharmacology, 4, 62-64(1990)) and the intraocular pressure lowering action of the test compounds was investigated.
Described specifically, the rabbits were maintained under general anesthesia and their intraocular pressure was measured using a tonometer (“Alcon Applanation Pneumatonography”; manufactured by Alcon). After instillation of local anesthetics into the eyes of the rabbits, 0.1 ml of a 5% sodium chloride solution were injected into their vitreous bodies through a 30 gauge needle. An increase in the intraocular pressure was confirmed 30 minutes after injection, followed by administration of 50 μl of an eye drop solution containing the test compound. Their intraocular pressure was then measured for 2 hours at intervals of 30 minutes (single administration test).
An ocular hypertension model was made as in Example 1. After confirmation of an increase in the intraocular pressure, 50 μl of a test compound 1 was instilled to the eyes, followed by application of the same amount of a test compound 2 into the eyes after 5 minutes. After this second administration, the intraocular pressure was measured for 2 hours at intervals of 1 hour. Intraocular pressure lowering was determined by the below-described equation. Decrease in intraocular pressure (mmHg)=(intraocular pressure after instillation of a compound group−intraocular pressure before instillation of the compound group)−(intraocular pressure after instillation of a control group−intraocular pressure before instillation of the control group)
The term “control group” in the above-described formula means a group to which physiological saline was administered to the eyes instead of each of the test compound 1 and test compound 2. Groups other than this control group are a compound group.
Also in this Example, the same test compounds as described in Example 1 were employed.

Question: For CCCCC(=O)N(Cc1ccc(-c2ccccc2-c2nnn[nH]2)cc1)[C@H](C(=O)O)C(C)C [CGP-48933], which effect for glaucoma (glaucoma) is on record?
Answer: The effect for glaucoma was “insufficient”.

Question: What does the source list for CCCc1nc(C(C)(C)O)c(C(=O)O)n1Cc1ccc(-c2ccccc2-c2nnn[nH]2)cc1 [Compound A]?
Answer: Change ratio (%) of intraocular pressure ([1]; Table 1, Compound A (4%) then physiological saline): 11.4 ± 5.5%; Change ratio (%) of intraocular pressure ([1]; Table 2, Compound A (4%) then physiological saline): 11.5 ± 4.1%; Decrease in intraocular pressure (mmHg) ([2]; Compound A (1%) then physiological saline, time after instillation 0 min): 0.0 ± 2.1 mmHg; Decrease in intraocular pressure (mmHg) ([2]; Compound A (1%) then physiological saline, time after instillation 60 min): −1.7 ± 2.2 mmHg; Decrease in intraocular pressure (mmHg) ([2]; Compound A (1%) then physiological saline, time after instillation 120 min): −3.4 ± 1.7 mmHg

Question: What does the source list for CC(C)(C)NC[C@H](O)COc1nsnc1N1CCOCC1 [Compound B, timolol maleate]?
Answer: Decrease in intraocular pressure (mmHg) ([2]; physiological saline then Compound B (0.25%), time after instillation 0 min): 0.0 ± 1.5 mmHg; Decrease in intraocular pressure (mmHg) ([2]; physiological saline then Compound B (0.25%), time after instillation 60 min): −2.0 ± 3.5 mmHg; Decrease in intraocular pressure (mmHg) ([2]; physiological saline then Compound B (0.25%), time after instillation 120 min): −1.9 ± 3.2 mmHg

Question: With CCCCCCCC(=O)CC[C@@H]1[C@@H](C/C=C\CCCC(=O)OC(C)C)[C@@H](O)C[C@H]1O [Compound C, isopropyl unoprostone] as the molecule, how does the “Change ratio (%) of intraocular pressure” value ([1]; Table 1, physiological saline then Compound C (0.12%)) read?
Answer: Its value is −2.4 ± 9.1%.

Question: Which “Change ratio (%) of intraocular pressure” value ([1]; Table 2, physiological saline then Compound D (0.005%)) does the source give for CC(C)OC(=O)CCC/C=C\C[C@@H]1[C@@H](CC[C@@H](O)CCc2ccccc2)[C@H](O)C[C@@H]1O [Compound D, latanoprost] here?
Answer: The value was 17.2 ± 8.8%.

— patent US7307096B2, “Combined agents for treatment of glaucoma” (Sankyo Company, Limited, priority 1999, dated 2007)
